Measured values as given in article PMC6115637 (Chemical Science, 2018).
Where a chain is given by its changes, count along the chain named.

Assays:
Assay type in all cases: cell-based
[1] = target: T1, M4 receptor I81A (Homo sapiens, UniProt P08173, I81A); test: Split luciferase biosensor cAMP assay for Gi activation, M4 mutant I81A; conditions: M4 mutant I81A vs WT
T1 sequence (P08173 1-479 I81A): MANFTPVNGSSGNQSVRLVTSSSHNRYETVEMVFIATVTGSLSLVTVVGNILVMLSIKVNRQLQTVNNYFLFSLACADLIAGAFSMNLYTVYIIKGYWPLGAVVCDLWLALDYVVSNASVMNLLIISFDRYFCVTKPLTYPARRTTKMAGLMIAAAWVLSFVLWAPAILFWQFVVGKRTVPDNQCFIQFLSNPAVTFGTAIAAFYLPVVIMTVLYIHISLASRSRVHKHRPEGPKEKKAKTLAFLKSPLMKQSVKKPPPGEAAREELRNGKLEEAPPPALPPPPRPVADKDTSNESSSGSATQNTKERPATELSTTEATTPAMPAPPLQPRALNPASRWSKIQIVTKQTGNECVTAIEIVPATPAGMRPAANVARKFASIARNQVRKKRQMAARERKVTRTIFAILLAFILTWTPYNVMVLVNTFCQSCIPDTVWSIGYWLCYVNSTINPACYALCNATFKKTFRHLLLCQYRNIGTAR

[2] = target: T2, M4 receptor S116A (Homo sapiens, UniProt P08173, S116A); test: Split luciferase biosensor cAMP assay for Gi activation, M4 mutant S116A; conditions: M4 mutant S116A vs WT
T2 sequence (P08173 1-479 S116A): T1 sequence (P08173 1-479 I81A) with A81I, S116A

[3] = target: T3, M4 receptor S119A (Homo sapiens, UniProt P08173, S119A); test: Split luciferase biosensor cAMP assay for Gi activation, M4 mutant S119A; conditions: M4 mutant S119A vs WT
T3 sequence (P08173 1-479 S119A): T1 sequence (P08173 1-479 I81A) with A81I, S119A

[4] = target: T4, M4 receptor V120A (Homo sapiens, UniProt P08173, V120A); test: Split luciferase biosensor cAMP assay for Gi activation, M4 mutant V120A; conditions: M4 mutant V120A vs WT
T4 sequence (P08173 1-479 V120A): T1 sequence (P08173 1-479 I81A) with A81I, V120A

[5] = target: T5, M4 receptor F409A (Homo sapiens, UniProt P08173, F409A); test: Split luciferase biosensor cAMP assay for Gi activation, M4 mutant F409A; conditions: M4 mutant F409A vs WT
T5 sequence (P08173 1-479 F409A): T1 sequence (P08173 1-479 I81A) with A81I, F409A

[6] = target: T6, M4 receptor W413A (Homo sapiens, UniProt P08173, W413A); test: Split luciferase biosensor cAMP assay for Gi activation, M4 mutant W413A
T6 sequence (P08173 1-479 W413A): T1 sequence (P08173 1-479 I81A) with A81I, W413A

[7] = target: T7, M4 receptor N445A (Homo sapiens, UniProt P08173, N445A); test: Split luciferase biosensor cAMP assay for Gi activation, M4 mutant N445A; conditions: M4 mutant N445A vs WT
T7 sequence (P08173 1-479 N445A): T1 sequence (P08173 1-479 I81A) with A81I, N445A

- activity decrease compared to WT M4 receptor [1]: 100 times
- activity decrease compared to WT M4 receptor [2]: 100 times
- decreased activity compared to WT M4 receptor [3]: 4–14 fold
- change of EC50 compared to WT M4 receptor (printed: increased the EC50) [4]: 16 fold
- decreased activity compared to WT M4 receptor [5]: 4–14 fold
- activity of M4 mutant towards ACh [6]: completely inactive
- decreased activity compared to WT M4 receptor [7]: 4–14 fold
Structure (SMILES): CC(=O)OCC[N+](C)(C)C [ACh, acetylcholine]
